Laboratory results from US20250281424A1 (New York Blood Center, Inc, priority 2020, published 2025).

Target: T1, human PF4 (Homo sapiens, UniProt P02776)
T1 construct: PF4 is a 70 amino acid, lysine-rich 7.8 kDa platelet-specific protein; made in house; host or cells: Escherichia coli BL21DE3 pLysS (pT7-7) and/or Drosophila S2 cells
T1 sequence (P02776 32-101): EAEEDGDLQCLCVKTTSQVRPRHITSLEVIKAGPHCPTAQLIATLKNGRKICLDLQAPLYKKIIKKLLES
Experiment: Inhibition of PF4 tetramer formation (BS3 cross-linking, SDS-PAGE)
Assay type: biochemical
Conditions: for IC50: read-out: IC50 of PF4 tetramer formation inhibition; for inhibition at 5 µM: 5 μM inhibitor; for inhibition at 10 µM: 10 μM inhibitor (column A); for inhibition at 1 µM: 1 μM inhibitor; for inhibition at 3 µM: 3 μM inhibitor (column A)
Description: Compounds of Examples 1-38, 65-301, 303, 305, 307, 309, 311, 313, 314, 316, and 318-404 were tested using SDS PAGE analysis of BS3 crosslinked PF4 for their ability to prevent PF4 tetramer formation. […] See, Suvarna et al., Throm. Res, 122:211-220 (2008), which is hereby incorporated by reference, at least for a detailed description of this technique.
cDNA encoding human PF4 was cloned into the plasmid μMT/BiPN5-His A (Invitrogen Corp., Carlsbad CA) for expression in the Drosophila Expression System (Invitrogen, Carlsbad, CA). Cloning was performed using Bg1 II and Age I cloning sites. A hexanucleotide encoding Bg1 II site was then eliminated by site-directed mutagenesis so that the expressed protein contained full-length wild type (wt) PF4 or PF4^K50E with an identical sequence as their counterparts expressed in E. coli. See, method described in Sachais et al (Sachais, B. S. et al. (2012). Blood 119(25): 5955-5961). PF4 expression was induced by adding copper sulfate (0.5 mM). The induced S2 cells were incubated in serumfree Insect-Xpress™ media (Lonza, Walkersville, MD) for 3-5 days; supernatants were collected, sodium azide (0.02% final concentration) and EDTA (2.5 mM final concentration) were added, and the media were filtered through an Express® PLUS 0.22 μm filter (Millipore Corp., Billerica, MA).
Wild-type (WT) human PF4 in the pT7-7 vector (Novagen, Madison, WI) was expressed in the Escherichia coli strain BL21DE30 pLysS (Stratagene, La Jolla, CA), and purified and characterized as described by Rauova et al. (Rauova, L. et al. (2006). Blood 107(6): 2346-2353) and Park et al., (Blood, 75:1290-1295 (1990)), which are hereby incorporated by reference. Briefly, recombinant protein was isolated from the supernatant of the bacterial lysate by affinity chromatography using a HiTrap high-performance (HP) affinity column. WT PF4 was purified from the media on a heparin HiTrap® column on an ÄTKAPrime™ system (GE Healthcare) at 4° C. in Tris (10 mM), EDTA (1 mM), and pH 8 buffer. Media was loaded in buffer containing NaCl (0.5 M) and PF4 was eluted at 1.8 M NaCl using a linear gradient. Fractions containing purified PF4 as detected by silver staining of 12% NuPAGE Bis-Tris gels (Invitrogen) were pooled, concentrated and buffer exchanged into 50 mM HEPES, 0.5 M NaCl, pH—7.2 using an Amicon® Ultra centrifugal filter (3K NMWL, Millipore Corp). Protein was quantified using a BCA assay.
Compounds of Examples 1-38, 65-196, and 209-228 were then tested for their ability to inhibit PF4 tetramer formation using a cross-linking assay as described in Rauova cited above. Specifically, hPF4 (10 μg/ml) in phosphate-buffered saline (PBS) was incubated at 37° C. for 15 min in the absence of the antagonistic compounds (control sample) and presence of compounds. Cross-linking and SDS-PAGE analysis were then performed as described in “Analysis of PF4 multimerization” of Rauova. The relative amounts of PF4 in each of the monomer, dimer, trimer and tetramer form were calculated by analyzing the samples on a 12% SDS-polyacrylamide gel under reducing conditions. Bands were quantified using the Kodak ID Image Analysis system (Kodak, Rochester, NY). The SigmaMarker™ reagent served as the molecular weight standard. Data was compiled and bar graphed as % PF4 for the tetramer, trimer, dimer, and monomer as a function of concentration for the test and control samples.
This experiment was performed in a manner similar to experiment 1, but PF4 (10 μg/ml) in PBS was independently incubated with compounds of Examples 1-38, 65-196, and 209-228 for 60 min at room temperature, followed by the addition of cross-linking reagent bis(sulfosuccinimidyl)suberate (0.2 mM) for 30 min at room temperature. The reaction was stopped by adding NuPAGE® lithium dodecyl sulfate (LDS) sample buffer, and denatured by heating to 70° C. for 10 min according to the manufacturer's instructions. […]

[1] = read-out: % inhibition of PF4 tetramer formation at single concentration of inhibitor

SMILES	IC50	inhibition at 10 µM [1]	inhibition at 1 µM [1]	inhibition at 3 µM [1]	further results
CC(C)(C)OC(=O)N1CCC[C@H]1C(=O)C1C(=O)c2ccc(C(c3ccc4c(c3)C(=O)C(C(=O)[C@@H]3CCCN3C(=O)OC(C)(C)C)C4=O)(C(F)(F)F)C(F)(F)F)cc2C1=O (stereo partly drawn) [Example 195, tert-butyl (2S)-2-[5-(2-{2-[(2S)-1-[(tert-butoxy)carbonyl]pyrrolidine-2-carbonyl]-1,3-dioxo-2,3-dihydro-1H-inden-5-yl}-1,1,1,3,3,3-hexafluoropropan-2-yl)-1,3-dioxo-2,3-dihydro-1H-indene-2-carbonyl]pyrrolidine-1-carboxylate]	4 µM				
CC(C)(C)OC(=O)N1CSC[C@H]1C(=O)C1C(=O)c2ccc(-c3ccc4c(c3)C(=O)C(C(=O)[C@@H]3CSCN3C(=O)OC(C)(C)C)C4=O)cc2C1=O (stereo partly drawn) [Example 210, tert-butyl (4R)-4-{2′-[(4R)-3-[(tert-butoxy)carbonyl]-1,3-thiazolidine-4-carbonyl]-1,1′,3,3′-tetraoxo-1H,1′H,2H,2′H,3H,3′H-[5,5′-biindene]-2-carbonyl}-1,3-thiazolidine-3-carboxylate]	~5 µM	94%			inhibition at 5 µM [1]: 62%
O=C(NC1CCCC1)C1C(=O)c2ccc(Oc3ccc4c(c3)C(=O)C(C(=O)NC3CCCC3)C4=O)cc2C1=O (centres unmarked) [Example 107, N-cyclopentyl-5-{[2-(cyclopentylcarbamoyl)-1,3-dioxo-2,3-dihydro-1H-inden-5-yl]oxy}-1,3-dioxo-2,3-dihydro-1H-indene-2-carboxamide]	2.9 µM				
CCCCNC(=O)C1C(=O)c2ccc(C(=O)c3ccc4c(c3)C(=O)C(C(=O)NCCCC)C4=O)cc2C1=O (centres unmarked) [Example 77, N-butyl-5-[2-(butylcarbamoyl)-1,3-dioxo-2,3-dihydro-1H-indene-5-carbonyl]-1,3-dioxo-2,3-dihydro-1H-indene-2-carboxamide]	2.3 µM				
O=C(c1ccc2c(c1)C(=O)C(C(=O)Nc1cc(Cl)nc(Cl)c1)C2=O)c1ccc2c(c1)C(=O)C(C(=O)Nc1cc(Cl)nc(Cl)c1)C2=O (centres unmarked) [Example 17, 5,5′-carbonylbis(1,3-dioxo-indan-2-carboxylic acid (2,6-dichloro-pyridin-4-yl)-amide)]	1.08 µM				
O=C(c1ccc2c(c1)C(=O)C(C(=O)NC1CC1)C2=O)c1ccc2c(c1)C(=O)C(C(=O)NC1CC1)C2=O (centres unmarked) [Example 21, 5,5′-carbonylbis(1,3-dioxo-indan-2-carboxylic acid (cyclopropyl)-amide)]		46%			inhibition at 5 µM [1]: 27%
O=C1c2ccc(Oc3ccc4c(c3)C(=O)C(C(=O)C3CCCCC3)C4=O)cc2C(=O)C1C(=O)C1CCCCC1 (centres unmarked) [Example 286, 2-cyclohexanecarbonyl-5-[(2-cyclohexanecarbonyl-1,3-dioxo-2,3-dihydro-1H-inden-5-yl)oxy]-2,3-dihydro-1H-indene-1,3-dione]	3 µM		37%	47%	
CCOC(=O)NC(=O)C1C(=O)c2ccc(C(=O)c3ccc4c(c3)C(=O)C(C(=O)NC(=O)OCC)C4=O)cc2C1=O (centres unmarked) [Example 16, 5,5′-carbonylbis((1,3-dioxo-indane-2-carbonyl)-carbamic acid ethyl ester)]	20 µM				inhibition at 30 µM (30 μM inhibitor, read-out: % inhibition of PF4 tetramer formation at single concentration of inhibitor): 78%
O=C(c1ccc2c(c1)C(=O)C(Br)C2=O)c1ccc2c(c1)C(=O)C(Br)C2=O (centres unmarked) [Example 244, 2-bromo-5-(2-bromo-1,3-dioxo-2,3-dihydro-1H-indene-5-carbonyl)-2,3-dihydro-1H-indene-1,3-dione]			21%	43%	
CSCCCC(=O)C1C(=O)c2ccc(Oc3ccc4c(c3)C(=O)C(C(=O)CCCSC)C4=O)cc2C1=O (centres unmarked) [Example 283, 2-[4-(methylsulfanyl)butanoyl]-5-({2-[4-(methylsulfanyl)butanoyl]-1,3-dioxo-2,3-dihydro-1H-inden-5-yl}oxy)-2,3-dihydro-1H-indene-1,3-dione]	10 µM	86%			
CC(C)(C)OC(=O)NCC(=O)C1C(=O)c2ccc(C(c3ccc4c(c3)C(=O)C(C(=O)CNC(=O)OC(C)(C)C)C4=O)(C(F)(F)F)C(F)(F)F)cc2C1=O (centres unmarked) [Example 228, tert-butyl N-[2-(5-{2-[2-(2-{[(tert-butoxy)carbonyl]amino}acetyl)-1,3-dioxo-2,3-dihydro-1H-inden-5-yl]-1,1,1,3,3,3-hexafluoropropan-2-yl}-1,3-dioxo-2,3-dihydro-1H-inden-2-yl)-2-oxoethyl]carbamate]	2.8 µM				
CC(=O)NCCCC(=O)C1C(=O)c2ccc(C(=O)c3ccc4c(c3)C(=O)C(C(=O)CCCNC(C)=O)C4=O)cc2C1=O (centres unmarked) [Example 269, N-(4-{5-[2-(4-acetamidobutanoyl)-1,3-dioxo-2,3-dihydro-1H-indene-5-carbonyl]-1,3-dioxo-2,3-dihydro-1H-inden-2-yl}-4-oxobutyl)acetamide]			14%	50%	
O=C(c1ccc2c(c1)C(=O)C(C(=O)NC1CCCC1)C2=O)c1ccc2c(c1)C(=O)C(C(=O)NC1CCCC1)C2=O (centres unmarked) [Example 71, 5,5′-carbonylbis(n-cyclopentyl-1,3-dioxo-2,3-dihydro-1h-indene-2-carboxamide)]	1 µM	85%			inhibition at 5 µM [1]: 2%
COC(=O)c1ccc(NC(=O)C2C(=O)c3ccc(S(=O)(=O)c4ccc5c(c4)C(=O)C(C(=O)Nc4ccc(C(=O)OC)cc4)C5=O)cc3C2=O)cc1 (centres unmarked) [Example 98, methyl 4-{5-[(2-{[4-(methoxycarbonyl)phenyl]carbamoyl}-1,3-dioxo-2,3-dihydro-1H-inden-5-yl)sulfonyl]-1,3-dioxo-2,3-dihydro-1H-indene-2-amido}benzoate]		100%			inhibition at 5 µM [1]: 100%
CSCC(=O)C1C(=O)c2ccc(S(=O)(=O)c3ccc4c(c3)C(=O)C(C(=O)CSC)C4=O)cc2C1=O (centres unmarked) [Example 282, 2-[2-(methylsulfanyl)acetyl]-5-({2-[2-(methylsulfanyl)acetyl]-1,3-dioxo-2,3-dihydro-1H-inden-5-yl}sulfonyl)-2,3-dihydro-1H-indene-1,3-dione]	3 µM		29%	45%	
CSCCC(=O)C1C(=O)c2ccc(Oc3ccc4c(c3)C(=O)C(C(=O)CCSC)C4=O)cc2C1=O (centres unmarked) [Example 276, 2-[3-(methylsulfanyl)propanoyl]-5-({2-[3-(methylsulfanyl)propanoyl]-1,3-dioxo-2,3-dihydro-1H-inden-5-yl}oxy)-2,3-dihydro-1H-indene-1,3-dione]	3 µM		12%	7%	
